Test results: ChEMBL document CHEMBL1201862, “PubChem BioAssay data set” (2004)
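1) Cells in 96-well plates. 2) Compound, 48 h, 5 concentrations. 3) Linear interpolation between surrounding doses. 4) Unreached endpoint = highest concentration. Here, GI50 denotes the concentration required for 50% inhibition of growth.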 The source made the active and inactive calls. Cut-off read from the data, not from the text of the source: active = GI50 up to about 1.1 µM and inactive = higher.

Key:
Assay in all cases: growth of human tumour cells (NCI), 48 h
HCT-116 = system: HCT-116
HOP-18 = system: HOP-18
HOP-92 = system: HOP-92
K562 = system: K562
KM-20L2 = system: KM-20L2
LOX IMVI = system: LOX IMVI
NCI-H460 = system: NCI-H460
NCI-H522 = system: NCI-H522
RPMI-8226 = system: RPMI-8226
RXF 393 = system: RXF 393
SK-MEL-5 = system: SK-MEL-5
SN12C = system: SN12C
SNB-19 = system: SNB-19
SNB-75 = system: SNB-75
SR = system: SR
TK-10 = system: TK-10
DMS-273 = system: DMS-273
NCI/ADR-RES = system: NCI/ADR-RES

SMILES	GI50 (HCT-116)	GI50 (HOP-18)	GI50 (HOP-92)	GI50 (K562)	GI50 (KM-20L2)	GI50 (LOX IMVI)	GI50 (NCI-H460)	GI50 (NCI-H522)	GI50 (RPMI-8226)	GI50 (RXF 393)	GI50 (SK-MEL-5)	GI50 (SN12C)	GI50 (SNB-19)	GI50 (SNB-75)	GI50 (SR)	GI50 (TK-10)	GI50 (DMS-273)	GI50 (NCI/ADR-RES)
CN1CC[C@]2(C)c3c(O)cccc3CC3CCCC1C32C (some centres undefined)	> 100 µM (inactive)	54.1 µM (inactive)	89.7 µM (inactive)	91.6 µM (inactive)	> 100 µM (inactive)	> 100 µM (inactive)	> 100 µM (inactive)	> 100 µM (inactive)	> 100 µM (inactive)	> 100 µM (inactive)	> 100 µM (inactive)	> 100 µM (inactive)	> 100 µM (inactive)	45.4 µM (inactive)	> 100 µM (inactive)	> 100 µM (inactive)		
O=c1c(-c2ccccc2)c2oc(c1-c1ccccc1)CS(=O)(=O)CCC2	12.7 µM (inactive)	< 0.01 µM (active)	> 100 µM (inactive)	31.1 µM (inactive)		20.2 µM (inactive)	31.6 µM (inactive)	9.98 µM (inactive)	26.9 µM (inactive)	13.8 µM (inactive)	27.7 µM (inactive)	16.9 µM (inactive)	> 100 µM (inactive)		23.3 µM (inactive)	37.5 µM (inactive)	22.5 µM (inactive)	
COc1ccc(/C=C2\C(=O)N(C(=O)c3ccc(NC(C)=O)cc3)N=C2C)cc1	> 100 µM (inactive)	> 100 µM (inactive)		> 100 µM (inactive)		> 100 µM (inactive)	> 100 µM (inactive)	> 100 µM (inactive)	> 100 µM (inactive)		> 100 µM (inactive)	> 100 µM (inactive)	> 100 µM (inactive)	> 100 µM (inactive)	> 100 µM (inactive)	> 100 µM (inactive)	> 100 µM (inactive)	
Cc1ccc(S(=O)(=O)N(C=O)N=C2CCN(Cc3ccccc3)CC2)cc1	> 100 µM (inactive)	> 100 µM (inactive)		> 100 µM (inactive)	> 100 µM (inactive)	> 100 µM (inactive)	> 100 µM (inactive)	> 100 µM (inactive)	> 100 µM (inactive)	> 100 µM (inactive)	> 100 µM (inactive)	> 100 µM (inactive)	> 100 µM (inactive)	> 100 µM (inactive)	> 100 µM (inactive)	> 100 µM (inactive)	> 100 µM (inactive)	
Cn1nc(-c2ccccc2)c2c(/C=C/c3ccc(Cl)cc3)onc2c1=O	11.1 µM (inactive)	9.84 µM (inactive)	21.7 µM (inactive)	40.8 µM (inactive)	19.1 µM (inactive)	25.6 µM (inactive)	> 100 µM (inactive)	13.3 µM (inactive)	31.8 µM (inactive)	39.8 µM (inactive)	> 100 µM (inactive)	17.1 µM (inactive)	41.5 µM (inactive)			33 µM (inactive)	> 100 µM (inactive)	
Nc1ccccc1S(=O)(=O)c1ccccc1	> 100 µM (inactive)	> 100 µM (inactive)	> 100 µM (inactive)	> 100 µM (inactive)	> 100 µM (inactive)	> 100 µM (inactive)	> 100 µM (inactive)		> 100 µM (inactive)	> 100 µM (inactive)	> 100 µM (inactive)	> 100 µM (inactive)	> 100 µM (inactive)	41.1 µM (inactive)	> 100 µM (inactive)	> 100 µM (inactive)	> 100 µM (inactive)	
CN(C)CCCNC(=O)N/N=C/c1ccccc1	> 100 µM (inactive)	> 100 µM (inactive)		> 100 µM (inactive)		> 100 µM (inactive)	> 100 µM (inactive)	> 100 µM (inactive)		> 100 µM (inactive)	> 100 µM (inactive)	> 100 µM (inactive)	> 100 µM (inactive)	> 100 µM (inactive)		> 100 µM (inactive)	> 100 µM (inactive)	
O=C1CCCCC2N(C(c3ccccc3)c3ccccc3)CC[C@@]12c1ccccc1.O=C1CCCC[C@H]2N(C(c3ccccc3)c3ccccc3)CC[C@@]12c1ccccc1 (some centres undefined)	2.99 µM (inactive)		2.56 µM (inactive)	4.27 µM (inactive)	> 10 µM (inactive)	6.3 µM (inactive)	9.55 µM (inactive)	3.68 µM (inactive)	2.77 µM (inactive)	4.32 µM (inactive)	4.57 µM (inactive)	> 10 µM (inactive)	> 10 µM (inactive)	> 10 µM (inactive)		> 10 µM (inactive)	> 10 µM (inactive)	
c1ccc2c(c1)NCc1cc3ccccc3nc1O2	> 100 µM (inactive)	> 100 µM (inactive)	> 100 µM (inactive)	> 100 µM (inactive)		97.1 µM (inactive)	> 100 µM (inactive)	> 100 µM (inactive)	> 100 µM (inactive)	> 100 µM (inactive)	> 100 µM (inactive)	> 100 µM (inactive)	> 100 µM (inactive)	> 84.5 µM (inactive)			> 100 µM (inactive)	> 77.8 µM (inactive)
CC(=O)SCCC1c2[nH]c3ccccc3c2CCN1O (centres undefined)		> 100 µM (inactive)	26.7 µM (inactive)	32.4 µM (inactive)	> 100 µM (inactive)	49 µM (inactive)	82.8 µM (inactive)	23.9 µM (inactive)	35.2 µM (inactive)	78 µM (inactive)	83 µM (inactive)	> 100 µM (inactive)	> 100 µM (inactive)	18.7 µM (inactive)		> 100 µM (inactive)	86.1 µM (inactive)	
CC(=O)/C(=C\c1ccccc1O)C(=O)Nc1ccccc1C	24.4 µM (inactive)	40.2 µM (inactive)	15.9 µM (inactive)	4.06 µM (inactive)		14.3 µM (inactive)	23.7 µM (inactive)	> 10 µM (inactive)	15 µM (inactive)	19.1 µM (inactive)	13.5 µM (inactive)	> 10 µM (inactive)	20.7 µM (inactive)		13.1 µM (inactive)	> 10 µM (inactive)		
C=CCC12CC(=O)C=C1CCC1(C2)OCCO1 (centres undefined)	> 100 µM (inactive)	> 100 µM (inactive)		> 100 µM (inactive)	> 100 µM (inactive)		> 100 µM (inactive)	> 100 µM (inactive)	> 100 µM (inactive)	> 100 µM (inactive)	> 100 µM (inactive)	> 100 µM (inactive)	> 100 µM (inactive)	> 100 µM (inactive)	> 100 µM (inactive)	> 100 µM (inactive)	> 100 µM (inactive)	
Nc1ccccc1Sc1ccc(Cl)cc1	34.3 µM (inactive)	43.2 µM (inactive)	20 µM (inactive)	27.8 µM (inactive)	20.9 µM (inactive)	28.6 µM (inactive)	24.3 µM (inactive)		24.4 µM (inactive)	13.5 µM (inactive)	17.8 µM (inactive)	23.2 µM (inactive)		18.1 µM (inactive)	21.2 µM (inactive)	35.6 µM (inactive)	26.1 µM (inactive)	
